Data published in article PMC3823594, “Conformational Changes Underlying Pore Dilation in the Cytoplasmic Domain of Mammalian Inward Rectifier K^+ Channels” (PLoS ONE, 2013).
Positions count from the first letter of the chain named. Each block holds one compound with its values, some of them ahead of it.

Key:
[1] = target: T1, Kir3.2 M313T (Mus musculus, UniProt P48542, I313T); test: Inside-out patch clamp recording of channel activity; format: cell-based; details: Kir3.2 M313T in HEK293T inside-out patches, −100 mV
T1 sequence (P48542 19-425 I313T): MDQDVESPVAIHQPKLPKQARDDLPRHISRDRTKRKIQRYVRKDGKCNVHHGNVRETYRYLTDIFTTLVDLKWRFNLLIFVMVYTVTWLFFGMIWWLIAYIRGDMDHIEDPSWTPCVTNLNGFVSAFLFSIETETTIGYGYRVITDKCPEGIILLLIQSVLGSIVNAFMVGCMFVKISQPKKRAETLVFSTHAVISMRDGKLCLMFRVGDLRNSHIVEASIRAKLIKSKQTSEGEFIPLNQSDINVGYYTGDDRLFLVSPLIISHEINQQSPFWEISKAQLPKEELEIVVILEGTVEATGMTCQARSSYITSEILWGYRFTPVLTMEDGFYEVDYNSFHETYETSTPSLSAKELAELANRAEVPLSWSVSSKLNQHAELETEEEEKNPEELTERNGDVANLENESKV
T1 sequence (P06199 1-466 partner): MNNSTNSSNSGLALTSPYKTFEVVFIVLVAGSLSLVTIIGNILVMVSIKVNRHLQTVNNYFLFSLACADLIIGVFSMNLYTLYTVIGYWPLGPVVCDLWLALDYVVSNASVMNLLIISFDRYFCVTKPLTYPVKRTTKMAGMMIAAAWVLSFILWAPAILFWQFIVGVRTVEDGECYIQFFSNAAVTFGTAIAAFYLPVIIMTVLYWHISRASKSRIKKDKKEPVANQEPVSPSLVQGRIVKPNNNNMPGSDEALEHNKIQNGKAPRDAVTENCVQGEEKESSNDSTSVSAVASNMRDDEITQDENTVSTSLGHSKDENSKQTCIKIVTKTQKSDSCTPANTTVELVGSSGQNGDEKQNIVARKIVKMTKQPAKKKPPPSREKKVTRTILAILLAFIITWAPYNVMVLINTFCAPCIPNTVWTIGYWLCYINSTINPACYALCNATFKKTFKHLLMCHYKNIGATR
Experimental: (§1) The Kir3.2d and m2R subcloned into pcDNA3 (Invitrogen) were transfected into HEK293T cells using the Lipofectamine Plus reagent (Invitrogen, Carlsbad, CA). Single-channel activity was recorded in a cell-attached configuration at a holding potential of -100 mV using a patch-clamp amplifier (Axopatch 200B; Axon Instruments). The current traces were low-pass filtered at 1 kHz and digitized at 10 kHz. The glass pipettes had resistances of 2.5–3.5 MΩ when filled with the pipette solution, which contained 135 mM KCl, 1 mM CaCl2, 1.6 mM MgCl2, 5 mM HEPES, and 5 μM ACh; the bath solution was a Tyrode solution. A 50% crossing criterion for the current amplitude was used to judge the single-channel activity.
(§2) Inside-out patch clamp experiments were performed by the excision of patch membranes in the cell-attached configuration. The bath solution consisted of 135 mM KCl, 5 mM EGTA, 2 mM MgCl2 and 5 mM HEPES. The holding potential was -100 mV. We perfused ATP at the intracellular side to produce PIP2 at the inner leaflet of the plasma membrane, GTP (3 μM) to produce Gβγ mildly and GTPγS (10 μM) to generate Gβγ maximally. The pH of all solutions was adjusted to 7.35 with KOH prior to the experiments. All experiments were conducted at ambient temperature (20–25°C).
(§3) Figure 5 Inside-out patch recordings of Kir3.2 WT and mutant channels. Inside-out membrane patches were obtained from HEK293T cells expressing either Kir3.2 WT (A), M313G (B) or M313T mutant (C) channels. Experiments were conducted in symmetric 135 mM K^+ solutions with a holding potential of -100 mV. Perfusion of ATP was for the generation of PIP2 at the inner leaflet of the excised patch membranes. The protocol used for perfusion of substances to the intracellular side of the patch membrane is indicated by bars above the current traces.

[2] = tested on: Kir3.2 WT; test: as above; format: cell-based, mouse; details: Kir3.2 WT in HEK293T inside-out patches, −100 mV
Experimental: as §1, §2
Figure 5 Inside-out patch recordings of Kir3.2 WT and mutant channels. […]

[3] = target: T2, Kir3.2 M313G (Mus musculus, UniProt P48542, I313G); test: as above; format: cell-based; details: Kir3.2 M313G in HEK293T inside-out patches; ATP perfused at 2 mM; −100 mV
T2 sequence (P48542 19-425 I313G): T1 sequence (P48542 19-425 I313T) with T295G
T2 sequence (P06199 1-466 partner): T1 sequence (P06199 1-466 partner)
Experimental: as §1, §2, §3

[4] = target: cytoplasmic domain (CPD) of the mouse Kir3.2 E236R mutant (mouse); test: not stated; purified CPD E236R in solution; the method for the oligomeric state is not told
[5] = target: cytoplasmic domain (CPD) of the mouse Kir3.2 E236R mutant (mouse); test: crystal structure; sitting drops; reservoir 15% (v/v) ethanol, 0.1 M HEPES-NaOH (pH 7.5), 0.2 M MgCl2; 4°C; space group P4212; 2.0 Å

- Channel activity as % of the response evoked by GTPγS ([1]; GTP (3 μM)): about 11 ± 2%
Compound: Nc1nc2c(ncn2[C@@H]2O[C@H](COP(=O)(O)OP(=O)(O)OP(=O)(O)O)[C@@H](O)[C@H]2O)c(=O)[nH]1 [GTP]
- Channel activity as % of the response evoked by GTPγS ([2]; GTP (3 μM)): 4 ± 2%

Compound: Nc1ncnc2c1ncn2[C@@H]1O[C@H](COP(=O)(O)OP(=O)(O)OP(=O)(O)O)[C@@H](O)[C@H]1O [ATP]
- Sensitivity to ATP perfusion ([1]; in contrast to M313G): less sensitive
- Channel activity as % of that evoked by 10 μM GTPγS [3]: 59 ± 6%
- Channel activity as % of that evoked by 10 μM GTPγS ([2]; ATP perfused at 2 mM): 15 ± 4%

- stoichiometry N [4]: 4
- stoichiometry N [5]: 4
Compound: cytoplasmic domain (CPD) of the mouse Kir3.2 E236R mutant (domain or fragment)
